Read-outs that look alike come from different tables or passages of the source. One block for each compound: values may come before it.
Columns and labels:
NKCC1 = target: T1, NKCC1 (Homo sapiens, UniProt P55011); assay: NKCC1-mediated K+ influx (83Rb tracer uptake) in native HEK293 cells, hypertonic saline, 100 μM ouabain; format: cell-based
T1 construct: endogenous in cells; host or cells: native HEK293 cells
T1 sequence (P55011 1-1212): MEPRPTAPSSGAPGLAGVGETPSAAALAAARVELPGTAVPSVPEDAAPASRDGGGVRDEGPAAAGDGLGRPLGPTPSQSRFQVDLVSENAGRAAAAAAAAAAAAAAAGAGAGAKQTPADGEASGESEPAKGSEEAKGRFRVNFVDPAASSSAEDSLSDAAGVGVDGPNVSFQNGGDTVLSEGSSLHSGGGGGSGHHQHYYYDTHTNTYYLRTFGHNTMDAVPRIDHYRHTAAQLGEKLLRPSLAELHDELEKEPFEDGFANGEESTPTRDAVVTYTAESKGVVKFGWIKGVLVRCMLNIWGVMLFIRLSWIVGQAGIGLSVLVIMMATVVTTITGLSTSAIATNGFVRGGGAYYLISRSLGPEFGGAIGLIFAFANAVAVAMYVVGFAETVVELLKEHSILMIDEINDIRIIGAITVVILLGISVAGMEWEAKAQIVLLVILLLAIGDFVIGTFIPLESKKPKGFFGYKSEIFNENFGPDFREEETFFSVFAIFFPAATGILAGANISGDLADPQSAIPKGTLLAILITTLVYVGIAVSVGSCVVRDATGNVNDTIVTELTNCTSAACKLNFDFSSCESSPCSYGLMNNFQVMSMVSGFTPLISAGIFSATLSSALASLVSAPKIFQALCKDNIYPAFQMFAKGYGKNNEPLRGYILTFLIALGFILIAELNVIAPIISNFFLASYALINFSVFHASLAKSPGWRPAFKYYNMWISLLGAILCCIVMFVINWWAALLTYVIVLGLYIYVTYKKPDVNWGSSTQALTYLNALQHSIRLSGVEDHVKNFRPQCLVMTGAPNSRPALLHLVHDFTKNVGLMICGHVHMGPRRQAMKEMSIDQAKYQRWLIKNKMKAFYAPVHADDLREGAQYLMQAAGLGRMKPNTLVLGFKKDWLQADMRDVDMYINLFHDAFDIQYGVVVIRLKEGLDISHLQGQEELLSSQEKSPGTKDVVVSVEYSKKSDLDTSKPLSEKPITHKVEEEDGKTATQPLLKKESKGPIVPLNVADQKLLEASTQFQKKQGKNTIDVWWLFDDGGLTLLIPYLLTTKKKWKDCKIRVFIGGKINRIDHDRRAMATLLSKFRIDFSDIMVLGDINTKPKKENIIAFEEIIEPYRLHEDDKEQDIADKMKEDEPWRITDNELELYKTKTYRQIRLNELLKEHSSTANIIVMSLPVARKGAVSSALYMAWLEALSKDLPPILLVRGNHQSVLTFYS
Method in brief: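 Native cells in slightly hypertonic saline with 100 μM ouabain; 15 min preincubation then 15 min 83Rb uptake (0.25 μCi/mL), scintillation counting normalized to protein. Compounds at 2 μM and 20 μM; flux scaled 1000 (no drug) to 0 (20 μM bumetanide), triplicate dishes.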

NKCC1-KO HEK293 cells = assay: K+ influx (83Rb uptake) in NKCC1-KO HEK293 cells; format: cell-based, human
Description: A. Contribution of NKCC1 to K^+ influx in native HEK293 cells under isosmotic (basal) conditions. K^+ influx was measured in untreated cells (Cntr), cells exposed to 100 μM ouabain (ouab), 20 μM bumetanide (bum), or both. B. Signal separation between native HEK293 cells with and without 20 μM bumetanide. Cells were tested in a hypertonic saline and in the presence of 100 μM ouabain. These conditions became our standard conditions for drug testing. C. Absence of bumetanide-sensitive K^+ influx in A-NKCC1 HEK293 cells. Note that the K^+ influx was reduced to basal levels.
NKCC1 expression was eliminated from HEK293 cells using CRISPR/cas9. Cells were transfected with a vector expressing a cas9-EGFP fusion protein and a guide RNA specific to a NKCC1 sequence ([…]; SEQ ID NO: 1) located within exon 1. Two days post transfection, cells were FACS sorted and cells expressing EGFP and cas9 (green cells) were plated at 1 cell per well in 96 well plates. Cells were grown to confluence, duplicated, and tested for NKCC1 function using Tl+ (another congener of K^+) and a thallium sensitive fluorescent dye in the presence or absence of bumetanide.

[1] = cited from earlier work
NKCC2 = details: in words; cited from earlier work
[2] = Fragile X, Tuberous Sclerosis, Down syndrome, or Parkinson Disease; cited from earlier work
[3] = HEK293, 2 μM, no drug = 1000, 20 μM bumetanide = 0, read-out: NKCC1 mediated flux inhibition at 2 μM (%)
[4] = HEK293, 20 μM, no drug = 1000, 20 μM bumetanide = 0, read-out: NKCC1 mediated flux inhibition at 20 μM (%)
[5] = 2 μM, native HEK293, read-out: Percent inhibition of drugs on NKCC1, 2 uM
[6] = 20 μM, native HEK293, read-out: Percent inhibition of drugs on NKCC1, 20 uM

inhibition at 2 µM (NKCC1; [3]): 30 to 50%
inhibition at 20 µM (NKCC1; [4]): 10 to 30%
Structure (SMILES): CN=S(C)(=O)c1cc(C(=O)OC)cc(N)c1Oc1ccccc1 (centres unmarked) [Compound 132, methyl 3-amino-5-(N,S-dimethylsulfonimidoyl)-4-phenoxy-benzoate]

inhibition at 2 µM (NKCC1; [3]): 30 to 50%
inhibition at 20 µM (NKCC1; [4]): 10 to 30%
Structure (SMILES): CCCCNc1cc(C(=O)OC)cc(S(C)(=O)=NC)c1Oc1ccccc1 (centres unmarked) [Compound 133, methyl 3-(butylamino)-5-(N,S-dimethylsulfonimidoyl)-4-phenoxy-benzoate]

inhibition at 2 µM (NKCC1; [3]): 30 to 50%
inhibition at 20 µM (NKCC1; [4]): 50 to 75%
Structure (SMILES): CCCCNc1cc(C(=O)O)cc(S(C)(=O)=NC)c1Oc1ccccc1 (centres unmarked) [Compound 134, 3-(butylamino)-5-(N,S-dimethylsulfonimidoyl)-4-phenoxy-benzoic acid]

inhibition at 2 µM (NKCC1; [5]): 87%
inhibition at 20 µM (NKCC1; [6]): 100%
K+ influx in the presence of compound (NKCC1; 20 μM, native HEK293 without compound 7000-9000): 600-900 pmoles K+ per mg protein per m
Structure (SMILES): CCCCNc1cc(C(=O)O)cc(S(N)(=O)=O)c1Oc1ccccc1 [Ref 1, bumetanide, reference compound]

inhibition at 2 µM (NKCC1; [5]): 32%
inhibition at 20 µM (NKCC1; [6]): 77%
Structure (SMILES): NS(=O)(=O)c1cc(C(=O)O)c(NCc2ccco2)cc1Cl [Ref 2, furosemide, reference compound]

The remaining lines, values behind:

Structure (SMILES): CCCCNc1cc(C(=O)O)cc(S(N)(=O)=O)c1Oc1ccccc1 [Bumetanide]
flux (normalized) (NKCC1; 2 μM, no drug flux=1000, 20 μM bumetanide flux=0, n=6): 171±21
effect on K+ influx in NKCC1-KO cells (NKCC1-KO HEK293 cells): no longer affected K^+ influx
brain levels lower than the plasma ([1]; brain vs plasma): 200-300 fold
blood brain barrier permeability ([1]; in words): quite impermeable
diuretic potency (NKCC2): high diuretic potency
attenuation of severity of disorders [2]: attenuation

Structure (SMILES): CCCCN=S(C)(=O)c1cc(C(=O)O)cc(NCCCC)c1Oc1ccccc1 (centres unmarked) [Compound 131, 3-(butylamino)-5-(N-butyl-S-methyl-sulfonimidoyl)-4-phenoxy-benzoic acid]
inhibition at 2 µM (NKCC1; [3]): 30 to 50%
inhibition at 20 µM (NKCC1; [4]): ≥ 75%

Structure (SMILES): C[C@@H]1O[C@@H](O[C@H]2C[C@@H](O)[C@]3(CO)[C@H]4[C@H](O)C[C@]5(C)[C@@H](C6=CC(=O)OC6)CC[C@]5(O)[C@@H]4CC[C@]3(O)C2)[C@H](O)[C@H](O)[C@H]1O [Ouabain, ouabain, reference compound]
effect on flux not mediated by the cotransporter (NKCC1; 100 μM, inhibitor of the Na+/K+ pump): greatly reduced the flux not mediated by the cotransporter
